The target in the test is T1, ALK5 kinase (Homo sapiens, UniProt P36897).
T1 construct: GST; purchased Thermo Fisher Scientific Solutions
T1 sequence (P36897 34-503): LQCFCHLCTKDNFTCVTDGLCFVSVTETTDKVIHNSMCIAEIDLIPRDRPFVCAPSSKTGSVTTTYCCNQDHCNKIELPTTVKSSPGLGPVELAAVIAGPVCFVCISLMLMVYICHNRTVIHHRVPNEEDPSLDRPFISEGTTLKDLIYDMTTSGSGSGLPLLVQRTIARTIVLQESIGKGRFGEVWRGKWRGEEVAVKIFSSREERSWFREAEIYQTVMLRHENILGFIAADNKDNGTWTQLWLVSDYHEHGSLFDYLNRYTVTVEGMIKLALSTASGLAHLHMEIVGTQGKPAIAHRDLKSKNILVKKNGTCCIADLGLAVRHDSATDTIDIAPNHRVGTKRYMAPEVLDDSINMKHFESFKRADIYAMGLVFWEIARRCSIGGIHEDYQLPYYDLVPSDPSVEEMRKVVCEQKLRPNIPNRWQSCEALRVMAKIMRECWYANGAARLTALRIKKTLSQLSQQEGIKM
Briefly: Activity inhibition test on ALK5 enzyme (LanthaScreen Eu binding kinase assay). As to conditions: kinase tracer 178, 60 minutes at room temperature. The method, boiled down: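 IC50 is the concentration giving 50% inhibition relative to control, taken from fluorescence after 60 min stirring at room temperature. Final mix held kinase 5 nM, Eu-GST binding antibody 2 nM and tracer 178 10 nM. Compounds were serially diluted from 1 μM to 0.0001 μM.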
One may read the IC50 as the concentration at which inhibition is half-maximal. A low value points to inhibition by little substance. Turning to `Cc1cccc(-n2nc(C(=O)Nc3cc(F)ccc3F)cc2-c2ccc3ncnn3c2)n1` [Example 135, 5-([1,2,4]triazolo[1,5-α]pyridin-6-yl)-N-(2,5-difluorophenyl)-1-(6-methylpyridin-2-yl)-1H-pyrazole-3-carboxyamide], the concentration for half-maximal inhibition (IC50) was in the range of 10 to 100 nM.

Turning to `Cc1cccc(-n2nc(C(=O)Nc3ccc(F)c(F)c3)cc2-c2ccc3ncnn3c2)n1` [Example 136, 5-([1,2,4]triazolo[1,5-α]pyridin-6-yl)-N-(3,4-difluorophenyl)-1-(6-methylpyridin-2-yl)-1H-pyrazole-3-carboxyamide], the concentration for half-maximal inhibition (IC50) is about 10 nM.

As for `Cc1cccc(-n2nc(C(=O)Nc3cc(F)cc(F)c3)cc2-c2ccc3ncnn3c2)n1` [Example 137, 5-([1,2,4]triazolo[1,5-α]pyridin-6-yl)-N-(3,5-difluorophenyl)-1-(6-methylpyridin-2-yl)-1H-pyrazole-3-carboxyamide], the concentration for half-maximal inhibition (IC50) is 10 to 100 nM.

Take `Cc1cccc(-n2nc(C(=O)Nc3cccc(Cl)c3F)cc2-c2ccc3ncnn3c2)n1` [Example 138, 5-([1,2,4]triazolo[1,5-α]pyridin-6-yl)-N-(3-chloro-2-fluorophenyl)-1-(6-methylpyridin-2-yl)-1H-pyrazole-3-carboxyamide]: the IC50 fell in the range of 10 to 100 nM.

With `Cc1cccc(-n2nc(C(=O)Nc3ccc(Cl)cc3F)cc2-c2ccc3ncnn3c2)n1` [Example 139, 5-([1,2,4]triazolo[1,5-α]pyridin-6-yl)-N-(4-chloro-2-fluorophenyl)-1-(6-methylpyridin-2-yl)-1H-pyrazole-3-carboxyamide], the half-maximal inhibitory concentration (IC50) fell in the range of 10 to 100 nM.

As to `Cc1cccc(-n2nc(C(=O)Nc3ccc(F)c(Cl)c3)cc2-c2ccc3ncnn3c2)n1` [Example 140, 5-([1,2,4]triazolo[1,5-α]pyridin-6-yl)-N-(3-chloro-4-fluorophenyl)-1-(6-methylpyridin-2-yl)-1H-pyrazole-3-carboxyamide], the IC50 was about 10 nM.

On to `Cc1cccc(-n2nc(C(=O)Nc3ccc(Cl)c(Cl)c3)cc2-c2ccc3ncnn3c2)n1` [Example 141, 5-([1,2,4]triazolo[1,5-α]pyridin-6-yl)-N-(3,4-dichlorophenyl)-1-(6-methylpyridin-2-yl)-1H-pyrazole-3-carboxyamide], for which the IC50 is 10 to 100 nM.

The compound `Cc1cccc(-n2nc(C(=O)Nc3ccc(F)cc3Br)cc2-c2ccc3ncnn3c2)n1` [Example 142, 5-([1,2,4]triazolo[1,5-α]pyridin-6-yl)-N-(2-bromo-4-fluorophenyl)-1-(6-methylpyridin-2-yl)-1H-pyrazole-3-carboxyamide] returned an IC50 of 10 to 100 nM.

In turn, `CSc1cccc(NC(=O)c2cc(-c3ccc4ncnn4c3)n(-c3cccc(C)n3)n2)c1` [Example 143] yielded an IC50 of 6.6 nM.

`CSc1ccc(NC(=O)c2cc(-c3ccc4ncnn4c3)n(-c3cccc(C)n3)n2)cc1` [Example 144] yielded an IC50 of 10 to 100 nM.

As to `Cc1cccc(-n2nc(C(=O)Nc3cccc([S+](C)[O-])c3)cc2-c2ccc3ncnn3c2)n1` (stereo not drawn) [Example 145, 5-([1,2,4]triazolo[1,5-α]pyridin-6-yl)-N-(3-(methylsulfinyl)phenyl)-1-(6-methylpyridin-2-yl)-1H-pyrazole-3-carboxyamide], the IC50 was found to be 15 nM.

`Cc1cccc(-n2nc(C(=O)Nc3ccc([S+](C)[O-])cc3)cc2-c2ccc3ncnn3c2)n1` (stereo not drawn) [Example 146, 5-([1,2,4]triazolo[1,5-α]pyridin-6-yl)-N-(4-(methylsulfinyl)phenyl)-1-(6-methylpyridin-2-yl)-1H-pyrazole-3-carboxyamide] showed a half-maximal inhibitory concentration (IC50) of 6 nM.

For `Cc1cccc(-n2nc(C(=O)Nc3ccc(S(C)(=O)=O)cc3)cc2-c2ccc3ncnn3c2)n1` [Example 147, 5-([1,2,4]triazolo[1,5-α]pyridin-6-yl)-N-(4-(methylsulfonyl)phenyl)-1-(6-methylpyridin-2-yl)-1H-pyrazole-3-carboxyamide], the IC50 was 3.7 nM.

As to `Cc1cccc(-n2nc(C(=O)Nc3ccc(S(N)(=O)=O)cc3)cc2-c2ccc3ncnn3c2)n1` [Example 148, 5-([1,2,4]triazolo[1,5-α]pyridin-6-yl)-N-(4-sulfamoylphenyl)-1-(6-methylpyridin-2-yl)-1H-pyrazole-3-carboxyamide], the IC50 came to 8.3 nM.

`Cc1cccc(-n2nc(C(=O)Nc3ccc(S(C)(=N)=O)cc3)cc2-c2ccc3ncnn3c2)n1` (stereo not drawn) [Example 149, 5-([1,2,4]triazolo[1,5-α]pyridin-6-yl)-N-(4-(S-methylsulfonimidoyl)phenyl)-1-(6-methylpyridin-2-yl)-1H-pyrazole-3-carboxyamide] yielded an IC50 of 7.7 nM.

Turning to `CCCS(=O)(=O)c1ccc(NC(=O)c2cc(-c3ccc4ncnn4c3)n(-c3cccc(C)n3)n2)cc1` [Example 150, 5-([1,2,4]triazolo[1,5-α]pyridin-6-yl)-N-(4-(propylsulfonyl)phenyl)-1-(6-methylpyridin-2-yl)-1H-pyrazole-3-carboxyamide], the IC50 is 4.8 nM.

`CCCS(=O)(=O)c1ccc(NC(=O)c2cc(-c3ccc4ncnn4c3)n(-c3cccc(C)n3)n2)cc1` [Example 151, 5-([1,2,4]triazolo[1,5-α]pyridin-6-yl)-N-(4-(propylsulfonyl)phenyl)-1-(6-methylpyridin-2-yl)-1H-pyrazole-3-carboxyamide] registered an IC50 of 2.7 nM.

`Cc1cccc(-n2nc(C(=O)Nc3ccc(F)nc3)cc2-c2ccc3ncnn3c2)n1` [Example 152, 5-([1,2,4]triazolo[1,5-α]pyridin-6-yl)-N-(6-fluoropyridin-3-yl)-1-(6-methylpyridin-2-yl)-1H-pyrazole-3-carboxyamide] returned an IC50 of 4.6 nM.

In turn, `Cc1cccc(-n2nc(C(=O)Nc3ccc(Cl)nc3)cc2-c2ccc3ncnn3c2)n1` [Example 153, 5-([1,2,4]triazolo[1,5-α]pyridin-6-yl)-N-(6-chloropyridin-3-yl)-1-(6-methylpyridin-2-yl)-1H-pyrazole-3-carboxyamide] gave a 50% inhibitory concentration (IC50) of 25 nM.

Regarding `COc1ccc(NC(=O)c2cc(-c3ccc4ncnn4c3)n(-c3cccc(C)n3)n2)cn1` [Example 154, 5-([1,2,4]triazolo[1,5-α]pyridin-6-yl)-N-(6-methoxypyridin-3-yl)-1-(6-methylpyridin-2-yl)-1H-pyrazole-3-carboxyamide], the concentration for half-maximal inhibition (IC50) was about 10 nM.

In the case of `Cc1cccc(-n2nc(C(=O)NCc3ccccc3F)cc2-c2ccc3ncnn3c2)n1` [Example 155, 5-([1,2,4]triazolo[1,5-α]pyridin-6-yl)-N-(2-fluorobenzyl)-1-(6-methylpyridin-2-yl)-1H-pyrazole-3-carboxyamide], the IC50 came to 13 nM.

`Cc1cccc(-n2nc(C(=O)NCc3cccc(F)c3)cc2-c2ccc3ncnn3c2)n1` [Example 156, 5-([1,2,4]triazolo[1,5-α]pyridin-6-yl)-N-(3-fluorobenzyl)-1-(6-methylpyridin-2-yl)-1H-pyrazole-3-carboxyamide]: the half-inhibitory concentration (IC50) amounted to 22 nM.

For `Cc1cccc(-n2nc(C(=O)NCc3ccc(F)cc3)cc2-c2ccc3ncnn3c2)n1` [Example 157, 5-([1,2,4]triazolo[1,5-α]pyridin-6-yl)-N-(4-fluorobenzyl)-1-(6-methylpyridin-2-yl)-1H-pyrazole-3-carboxyamide], the IC50 lay within 10 to 100 nM.

`COc1cccc(CNC(=O)c2cc(-c3ccc4ncnn4c3)n(-c3cccc(C)n3)n2)c1` [Example 158, 5-([1,2,4]triazolo[1,5-α]pyridin-6-yl)-N-(3-methoxybenzyl)-1-(6-methylpyridin-2-yl)-1H-pyrazole-3-carboxyamide] had a half-inhibitory concentration (IC50) of 10 to 100 nM.

For the compound `COc1ccc(CNC(=O)c2cc(-c3ccc4ncnn4c3)n(-c3cccc(C)n3)n2)cc1` [Example 159, 5-([1,2,4]triazolo[1,5-α]pyridin-6-yl)-N-(4-methoxybenzyl)-1-(6-methylpyridin-2-yl)-1H-pyrazole-3-carboxyamide], the IC50 fell in the range of 10 to 100 nM.

The compound `Cc1cccc(-n2nc(C(=O)NCc3ccc(N(C)C)cc3)cc2-c2ccc3ncnn3c2)n1` [Example 160, 5-([1,2,4]triazolo[1,5-α]pyridin-6-yl)-N-(4-(dimethylamino)benzyl)-1-(6-methylpyridin-2-yl)-1H-pyrazole-3-carboxyamide] had an IC50 of 10 to 100 nM.

As for `CC(=O)Nc1ccc(CNC(=O)c2cc(-c3ccc4ncnn4c3)n(-c3cccc(C)n3)n2)cc1` [Example 161, 5-([1,2,4]triazolo[1,5-α]pyridin-6-yl)-N-(4-acetamidobenzyl)-1-(6-methylpyridin-2-yl)-1H-pyrazole-3-carboxyamide], the half-inhibitory concentration (IC50) was in the range of 10 to 100 nM.

With `Cc1cccc(-n2nc(C(=O)Nc3cnn(S(C)(=O)=O)c3)cc2-c2ccc3ncnn3c2)n1` [Example 162, 5-([1,2,4]triazolo[1,5-α]pyridin-6-yl)-1-(6-methylpyridin-2-yl)-N-(1-(methylsulfonyl)-1H-pyrazol-4-yl)-1H-pyrazole-3-carboxyamide], the IC50 was 2 nM.

As for `COc1ccc(NC(=O)c2cc(-c3ccc4nccnc4c3)n(-c3cccc(C)n3)n2)cc1` [Example 164, N-(4-methoxyphenyl)-1-(6-methylpyridin-2-yl)-5-(quinoxalin-6-yl)-1H-pyrazole-3-carboxyamide], the IC50 came out at 18 nM.

Compound `COc1cccc(NC(=O)c2cc(-c3ccc4nccnc4c3)n(-c3cccc(C)n3)n2)c1` [Example 165, N-(3-methoxyphenyl)-1-(6-methylpyridin-2-yl)-5-(quinoxalin-6-yl)-1H-pyrazole-3-carboxyamide] gave an IC50 of 24 nM.
